According to ChEMBL document CHEMBL5696443 (Clin Cancer Res, 2016):
Calls of active or inactive are those of the source. The rule behind the calls is not given here.

What was measured:
[1] = biological target: Calcium/calmodulin-dependent protein kinase type II subunit gamma (Homo sapiens, UniProt Q13555); assay: Inhibition of human CAMK2G using KKLNRTLSFAEPG as substrate in presence of [gamma33P]-ATP by HotSpot assay
[2] = biological target: Mitogen-activated protein kinase 10 (Homo sapiens) (UniProt P53779); assay: Inhibition of human MAPK10 at 1 uM using ATF2 as substrate in presence of [gamma33P]-ATP by HotSpot assay relative to control
[3] = biological target: Serine/threonine-protein kinase Nek11 (Homo sapiens) (UniProt Q8NG66); assay: Inhibition of human NEK11 at 1 uM using MBP as substrate in presence of [gamma33P]-ATP by HotSpot assay relative to control
[4] = biological target: RAC-alpha serine/threonine-protein kinase (Homo sapiens) (UniProt P31749); assay: Inhibition of human AKT1 at 1 uM using KGSGSGRPRTSSFAEG as substrate in presence of [gamma33P]-ATP by HotSpot assay relative to control
[5] = biological target: Dual specificity protein kinase CLK3 (Homo sapiens) (UniProt P49761); assay: Inhibition of human CLK3 at 1 uM using MBP as substrate in presence of [gamma33P]-ATP by HotSpot assay relative to control
[6] = biological target: Serine/threonine-protein kinase NLK (Homo sapiens) (UniProt Q9UBE8); assay: Inhibition of human NLK at 1 uM using MBP as substrate in presence of [gamma33P]-ATP by HotSpot assay relative to control
[7] = biological target: TGF-beta receptor type-2 (Homo sapiens) (UniProt P37173); assay: Inhibition of human TGFBR2 at 1 uM using MBP as substrate in presence of [gamma33P]-ATP by HotSpot assay relative to control
[8] = biological target: Serine/threonine-protein kinase Nek6 (Homo sapiens) (UniProt Q9HC98); assay: Inhibition of human NEK6 at 1 uM using casein as substrate in presence of [gamma33P]-ATP by HotSpot assay relative to control
[9] = biological target: Casein kinase II subunit alpha' (Homo sapiens) (UniProt P19784); assay: Inhibition of human CK2a2 at 1 uM using RRRDDDSDDD as substrate in presence of [gamma33P]-ATP by HotSpot assay relative to control
[10] = system: Platelet-derived growth factor receptor alpha (Homo sapiens), P16234 [T674I]; assay: Inhibition of human PDGFRalpha T674I mutant at 1 uM using poly (Glu, Tyr)4:1 as substrate in presence of [gamma33P]-ATP by HotSpot assay relative to control
[11] = biological target: Homeodomain-interacting protein kinase 1 (Homo sapiens) (UniProt Q86Z02); assay: Inhibition of human HIPK1 at 1 uM using MBP as substrate in presence of [gamma33P]-ATP by HotSpot assay relative to control
[12] = biological target: [Pyruvate dehydrogenase (acetyl-transferring)] kinase isozyme 1, mitochondrial (Homo sapiens) (UniProt Q15118); assay: Inhibition of human PDK1 at 1 uM using MBP as substrate in presence of [gamma33P]-ATP by HotSpot assay relative to control
[13] = biological target: Cyclin-dependent kinase 4/cyclin D1 (Homo sapiens) (UniProt P11802+P24385); assay: Inhibition of human CDK4/CyclinD1 at 1 uM using RB protein as substrate in presence of [gamma33P]-ATP by HotSpot assay relative to control; assay type: protein-complex assay
NCI-H3122 = details: time 72 hrs
[14] = biological target: Protein kinase C delta type (Homo sapiens) (UniProt Q05655); assay: Inhibition of human PRKCD at 1 uM using ERMRPRKRQGSVRRRV as substrate in presence of [gamma33P]-ATP by HotSpot assay relative to control
[15] = biological target: Serine/threonine-protein kinase N2 (Homo sapiens) (UniProt Q16513); assay: Inhibition of human PKN2 at 1 uM using LRRASLG as substrate in presence of [gamma33P]-ATP by HotSpot assay relative to control
[16] = biological target: Serine/threonine-protein kinase Chk2 (Homo sapiens, UniProt O96017, I157T); assay: Inhibition of human CHEK2 I157T mutant using KKKVSRSGLYRSPSMPENLNRPR as substrate in presence of [gamma33P]-ATP by HotSpot assay
[17] = biological target: Casein kinase I isoform gamma-3 (Homo sapiens) (UniProt Q9Y6M4); assay: Inhibition of human CSNK1G3 at 1 uM using KRRRAL[pS]VASLPGL as substrate in presence of [gamma33P]-ATP by HotSpot assay relative to control
[18] = biological target: Protein kinase C alpha type (Homo sapiens) (UniProt P17252); assay: Inhibition of human PRKCA at 1 uM using ERMRPRKRQGSVRRRV as substrate in presence of [gamma33P]-ATP by HotSpot assay relative to control
[19] = biological target: Tyrosine-protein kinase SYK (Homo sapiens) (UniProt P43405); assay: Inhibition of human SYK at 1 uM using poly (Glu, Tyr)4:1 as substrate in presence of [gamma33P]-ATP by HotSpot assay relative to control
[20] = system: EML4-ALK (Homo sapiens), Q9UM73+Q9HC35 [F1174I]; details: BaF3, dose 200.0 nmol/L, time 3-5 weeks
[21] = biological target: Mitogen-activated protein kinase 1 (Homo sapiens) (UniProt P28482); assay: Inhibition of human MAPK1 at 1 uM using MBP as substrate in presence of [gamma33P]-ATP by HotSpot assay relative to control
[22] = biological target: Testis-specific serine/threonine-protein kinase 2 (Homo sapiens, UniProt Q96PF2); assay: Inhibition of human TSSK2 using KKKVSRSGLYRSPSMPENLNRPR as substrate in presence of [gamma33P]-ATP by HotSpot assay
[23] = biological target: Casein kinase I isoform gamma-1 (Homo sapiens) (UniProt Q9HCP0); assay: Inhibition of human CSNK1G1 at 1 uM using KRRRAL[pS]VASLPGL as substrate in presence of [gamma33P]-ATP by HotSpot assay relative to control
[24] = biological target: Calcium/calmodulin-dependent protein kinase type II subunit alpha (Homo sapiens) (UniProt Q9UQM7); assay: Inhibition of human CAMK2A at 1 uM using KKALRRQETVDAL as substrate in presence of [gamma33P]-ATP by HotSpot assay relative to control
NCI-H2228 = assay: Antitumor activity against ALK positive human NCI-H2228 cells xenografted in CB-17/SCID orthotopic brain tumor mouse model assessed as reduction in tumor burden in brain at 50 mg/kg, po administered daily and measured after 64 days by H&E staining based analysis; assay type: functional, organism-based; details: time 64.0 day
[25] = biological target: Serine/threonine-protein kinase 10 (Homo sapiens, UniProt O94804); assay: Inhibition of human STK10 using RLGRDKYKTLRQIRQ as substrate in presence of [gamma33P]-ATP by HotSpot assay

Chain of Serine/threonine-protein kinase NLK (Homo sapiens) (Q9UBE8 whole entry): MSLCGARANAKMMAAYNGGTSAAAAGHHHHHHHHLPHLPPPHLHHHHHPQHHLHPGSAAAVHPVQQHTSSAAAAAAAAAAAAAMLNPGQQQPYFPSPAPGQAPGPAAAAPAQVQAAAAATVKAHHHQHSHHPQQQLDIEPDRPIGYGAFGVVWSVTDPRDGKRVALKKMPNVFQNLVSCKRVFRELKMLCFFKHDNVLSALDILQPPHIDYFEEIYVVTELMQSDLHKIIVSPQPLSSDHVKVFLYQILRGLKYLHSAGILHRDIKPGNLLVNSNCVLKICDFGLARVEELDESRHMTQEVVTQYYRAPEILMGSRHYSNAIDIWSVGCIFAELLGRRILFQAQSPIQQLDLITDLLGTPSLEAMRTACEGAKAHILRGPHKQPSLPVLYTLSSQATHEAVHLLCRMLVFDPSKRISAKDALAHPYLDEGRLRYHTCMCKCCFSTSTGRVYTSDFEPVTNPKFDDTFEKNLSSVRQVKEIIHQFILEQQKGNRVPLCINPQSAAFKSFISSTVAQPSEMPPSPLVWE
Chain of Platelet-derived growth factor receptor alpha (Homo sapiens), P16234 [T674I] (P16234 whole entry T674I): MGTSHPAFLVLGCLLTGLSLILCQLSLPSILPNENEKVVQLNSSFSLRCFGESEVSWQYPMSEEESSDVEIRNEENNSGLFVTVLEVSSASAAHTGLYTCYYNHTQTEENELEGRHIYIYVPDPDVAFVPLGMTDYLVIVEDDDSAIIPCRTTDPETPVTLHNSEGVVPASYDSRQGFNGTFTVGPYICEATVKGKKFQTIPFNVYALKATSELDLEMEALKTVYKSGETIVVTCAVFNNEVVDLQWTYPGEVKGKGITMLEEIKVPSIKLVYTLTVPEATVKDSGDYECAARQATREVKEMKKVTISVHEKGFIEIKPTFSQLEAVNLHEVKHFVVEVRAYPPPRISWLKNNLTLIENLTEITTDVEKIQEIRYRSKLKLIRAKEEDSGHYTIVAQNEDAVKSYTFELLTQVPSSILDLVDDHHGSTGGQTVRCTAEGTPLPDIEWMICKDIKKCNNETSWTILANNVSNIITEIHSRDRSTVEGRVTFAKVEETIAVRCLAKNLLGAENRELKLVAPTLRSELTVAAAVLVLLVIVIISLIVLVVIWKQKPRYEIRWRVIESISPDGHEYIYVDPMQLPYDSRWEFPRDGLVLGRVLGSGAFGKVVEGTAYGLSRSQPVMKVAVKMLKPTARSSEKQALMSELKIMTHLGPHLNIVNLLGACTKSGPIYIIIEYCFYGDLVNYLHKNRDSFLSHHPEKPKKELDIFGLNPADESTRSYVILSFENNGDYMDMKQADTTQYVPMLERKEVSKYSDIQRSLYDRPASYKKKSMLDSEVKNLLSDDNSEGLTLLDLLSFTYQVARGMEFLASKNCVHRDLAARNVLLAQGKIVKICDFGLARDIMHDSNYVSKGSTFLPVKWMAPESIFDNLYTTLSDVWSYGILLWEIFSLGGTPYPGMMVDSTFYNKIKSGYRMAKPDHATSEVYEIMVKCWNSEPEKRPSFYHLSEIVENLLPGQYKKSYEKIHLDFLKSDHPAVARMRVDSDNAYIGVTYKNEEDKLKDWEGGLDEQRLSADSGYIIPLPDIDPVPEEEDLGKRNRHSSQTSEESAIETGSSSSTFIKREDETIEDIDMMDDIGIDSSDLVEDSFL
Chain of Serine/threonine-protein kinase Nek6 (Homo sapiens) (Q9HC98 whole entry): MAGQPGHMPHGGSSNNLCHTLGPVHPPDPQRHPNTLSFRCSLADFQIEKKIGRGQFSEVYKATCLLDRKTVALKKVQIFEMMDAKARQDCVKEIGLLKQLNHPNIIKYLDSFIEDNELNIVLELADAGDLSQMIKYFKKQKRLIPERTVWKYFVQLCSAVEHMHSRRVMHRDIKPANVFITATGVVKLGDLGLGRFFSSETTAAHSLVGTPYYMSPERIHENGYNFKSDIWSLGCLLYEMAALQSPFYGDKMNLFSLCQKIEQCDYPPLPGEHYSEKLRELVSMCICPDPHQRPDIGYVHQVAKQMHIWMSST
Chain of Casein kinase I isoform gamma-1 (Homo sapiens) (Q9HCP0 whole entry, looked up, canonical isoform): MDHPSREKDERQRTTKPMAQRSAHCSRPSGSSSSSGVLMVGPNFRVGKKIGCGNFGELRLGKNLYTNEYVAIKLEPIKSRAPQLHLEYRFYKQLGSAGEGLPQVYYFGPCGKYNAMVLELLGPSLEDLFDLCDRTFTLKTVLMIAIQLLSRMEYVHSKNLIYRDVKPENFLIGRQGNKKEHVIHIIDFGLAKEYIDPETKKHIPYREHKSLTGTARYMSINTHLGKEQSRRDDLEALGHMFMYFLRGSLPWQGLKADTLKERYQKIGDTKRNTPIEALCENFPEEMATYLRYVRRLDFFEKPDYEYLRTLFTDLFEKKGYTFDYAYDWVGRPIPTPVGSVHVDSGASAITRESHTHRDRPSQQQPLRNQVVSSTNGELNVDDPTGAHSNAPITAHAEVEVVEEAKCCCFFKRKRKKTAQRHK
Chain of Homeodomain-interacting protein kinase 1 (Homo sapiens) (Q86Z02 whole entry, looked up): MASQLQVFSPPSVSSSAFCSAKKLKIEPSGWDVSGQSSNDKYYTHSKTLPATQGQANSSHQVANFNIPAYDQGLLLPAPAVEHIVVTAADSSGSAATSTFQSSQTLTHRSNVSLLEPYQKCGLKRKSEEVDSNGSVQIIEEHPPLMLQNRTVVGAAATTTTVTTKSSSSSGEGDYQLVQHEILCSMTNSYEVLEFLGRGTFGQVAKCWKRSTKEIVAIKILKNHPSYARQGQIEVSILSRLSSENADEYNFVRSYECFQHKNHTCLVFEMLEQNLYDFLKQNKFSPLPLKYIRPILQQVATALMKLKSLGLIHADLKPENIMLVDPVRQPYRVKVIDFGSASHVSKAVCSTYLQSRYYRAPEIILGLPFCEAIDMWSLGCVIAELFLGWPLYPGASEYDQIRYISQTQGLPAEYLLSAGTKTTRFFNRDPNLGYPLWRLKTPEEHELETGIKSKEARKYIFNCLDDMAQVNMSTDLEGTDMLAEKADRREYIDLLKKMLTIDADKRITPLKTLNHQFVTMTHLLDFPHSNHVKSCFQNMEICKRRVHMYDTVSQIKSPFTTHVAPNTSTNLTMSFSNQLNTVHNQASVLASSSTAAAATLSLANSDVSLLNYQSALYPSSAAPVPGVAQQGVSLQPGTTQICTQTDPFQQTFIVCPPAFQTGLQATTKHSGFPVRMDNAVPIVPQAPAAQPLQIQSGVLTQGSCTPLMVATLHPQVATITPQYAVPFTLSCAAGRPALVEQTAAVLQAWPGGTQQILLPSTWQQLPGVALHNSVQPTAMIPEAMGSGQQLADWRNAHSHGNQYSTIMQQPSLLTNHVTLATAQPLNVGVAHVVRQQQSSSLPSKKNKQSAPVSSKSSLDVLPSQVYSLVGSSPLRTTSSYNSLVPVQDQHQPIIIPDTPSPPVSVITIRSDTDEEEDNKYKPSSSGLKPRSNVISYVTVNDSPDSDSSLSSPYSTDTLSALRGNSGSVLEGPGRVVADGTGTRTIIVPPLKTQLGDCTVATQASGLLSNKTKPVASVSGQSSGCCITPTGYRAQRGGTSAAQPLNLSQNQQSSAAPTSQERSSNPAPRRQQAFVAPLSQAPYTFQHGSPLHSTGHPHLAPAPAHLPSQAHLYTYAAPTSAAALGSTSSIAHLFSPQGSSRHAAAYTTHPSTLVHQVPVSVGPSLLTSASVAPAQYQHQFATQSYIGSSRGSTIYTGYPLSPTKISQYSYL
Chain of TGF-beta receptor type-2 (Homo sapiens) (P37173 whole entry): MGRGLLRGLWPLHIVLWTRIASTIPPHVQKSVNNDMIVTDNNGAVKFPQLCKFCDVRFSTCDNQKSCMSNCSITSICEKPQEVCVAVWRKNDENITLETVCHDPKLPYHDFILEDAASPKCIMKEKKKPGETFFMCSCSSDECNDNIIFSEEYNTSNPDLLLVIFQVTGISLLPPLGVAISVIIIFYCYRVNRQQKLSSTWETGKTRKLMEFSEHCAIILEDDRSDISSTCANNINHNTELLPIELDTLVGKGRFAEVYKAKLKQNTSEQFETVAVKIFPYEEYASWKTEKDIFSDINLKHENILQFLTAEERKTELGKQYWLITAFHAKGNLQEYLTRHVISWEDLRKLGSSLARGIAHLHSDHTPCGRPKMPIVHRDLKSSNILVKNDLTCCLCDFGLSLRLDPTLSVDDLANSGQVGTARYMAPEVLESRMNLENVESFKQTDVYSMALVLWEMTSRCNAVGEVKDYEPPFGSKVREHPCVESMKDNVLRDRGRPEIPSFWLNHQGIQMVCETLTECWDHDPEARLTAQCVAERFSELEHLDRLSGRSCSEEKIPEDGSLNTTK

`COc1cc(N2CCC(N3CCN(C)CC3)CC2)ccc1Nc1ncc(Cl)c(Nc2ccccc2P(C)(C)=O)n1` [BRIGATINIB] was tested, and the IC50 [1] was 48 nM, the inhibition [2] was < 90% and the inhibition [3] was < 90%. For the same compound, the inhibition [4] was < 90%, the inhibition [5] was < 90% and the inhibition [6] was < 90%. For the same compound, the inhibition [7] was < 90%, the inhibition [8] was < 90% and the inhibition [9] was < 90%. For the same compound, the inhibition [10] was < 90%, the inhibition [11] was < 90% and the inhibition [12] was < 90%. For the same compound, the inhibition [13] was < 90%, the GI50 (NCI-H3122) was 4 nM and the inhibition [14] was < 90%. For the same compound, the inhibition [15] was < 90%, the IC50 [16] was 5.6 nM and the inhibition [17] was < 90%. The inhibition [18] was < 90%, the inhibition [19] was < 90% and the inhibition [20] was “inactive”. For the same compound, the inhibition [21] was < 90%, the IC50 [22] was 138 nM and the inhibition [23] was < 90%. For the same compound, the inhibition [24] was < 90%, the Activity (NCI-H2228) was “Active” and the IC50 [25] was 123 nM.
